Key:
ΔF508-CFTR [1] = biological target: T1, ΔF508-CFTR (Homo sapiens, UniProt P13569, DEL508-508); assay: CFTR cell surface levels using HRP-tagged ΔF508-CFTR expressing CFBE cells, intrinsic corrector capacity; assay type: cell-based; design: % Activation: concentration or dose not given beside the values; settings: HRP-tagged ΔF508-CFTR expressing CFBE41o- cells, compound alone (intrinsic corrector capacity), 20 hours at 33° C.; for EC50: read-out: EC50
T1 construct: host or cells: CFBE41o-, doxycycline-inducible
T1 sequence (P13569 with tags, fused parts or gaps DEL508-508): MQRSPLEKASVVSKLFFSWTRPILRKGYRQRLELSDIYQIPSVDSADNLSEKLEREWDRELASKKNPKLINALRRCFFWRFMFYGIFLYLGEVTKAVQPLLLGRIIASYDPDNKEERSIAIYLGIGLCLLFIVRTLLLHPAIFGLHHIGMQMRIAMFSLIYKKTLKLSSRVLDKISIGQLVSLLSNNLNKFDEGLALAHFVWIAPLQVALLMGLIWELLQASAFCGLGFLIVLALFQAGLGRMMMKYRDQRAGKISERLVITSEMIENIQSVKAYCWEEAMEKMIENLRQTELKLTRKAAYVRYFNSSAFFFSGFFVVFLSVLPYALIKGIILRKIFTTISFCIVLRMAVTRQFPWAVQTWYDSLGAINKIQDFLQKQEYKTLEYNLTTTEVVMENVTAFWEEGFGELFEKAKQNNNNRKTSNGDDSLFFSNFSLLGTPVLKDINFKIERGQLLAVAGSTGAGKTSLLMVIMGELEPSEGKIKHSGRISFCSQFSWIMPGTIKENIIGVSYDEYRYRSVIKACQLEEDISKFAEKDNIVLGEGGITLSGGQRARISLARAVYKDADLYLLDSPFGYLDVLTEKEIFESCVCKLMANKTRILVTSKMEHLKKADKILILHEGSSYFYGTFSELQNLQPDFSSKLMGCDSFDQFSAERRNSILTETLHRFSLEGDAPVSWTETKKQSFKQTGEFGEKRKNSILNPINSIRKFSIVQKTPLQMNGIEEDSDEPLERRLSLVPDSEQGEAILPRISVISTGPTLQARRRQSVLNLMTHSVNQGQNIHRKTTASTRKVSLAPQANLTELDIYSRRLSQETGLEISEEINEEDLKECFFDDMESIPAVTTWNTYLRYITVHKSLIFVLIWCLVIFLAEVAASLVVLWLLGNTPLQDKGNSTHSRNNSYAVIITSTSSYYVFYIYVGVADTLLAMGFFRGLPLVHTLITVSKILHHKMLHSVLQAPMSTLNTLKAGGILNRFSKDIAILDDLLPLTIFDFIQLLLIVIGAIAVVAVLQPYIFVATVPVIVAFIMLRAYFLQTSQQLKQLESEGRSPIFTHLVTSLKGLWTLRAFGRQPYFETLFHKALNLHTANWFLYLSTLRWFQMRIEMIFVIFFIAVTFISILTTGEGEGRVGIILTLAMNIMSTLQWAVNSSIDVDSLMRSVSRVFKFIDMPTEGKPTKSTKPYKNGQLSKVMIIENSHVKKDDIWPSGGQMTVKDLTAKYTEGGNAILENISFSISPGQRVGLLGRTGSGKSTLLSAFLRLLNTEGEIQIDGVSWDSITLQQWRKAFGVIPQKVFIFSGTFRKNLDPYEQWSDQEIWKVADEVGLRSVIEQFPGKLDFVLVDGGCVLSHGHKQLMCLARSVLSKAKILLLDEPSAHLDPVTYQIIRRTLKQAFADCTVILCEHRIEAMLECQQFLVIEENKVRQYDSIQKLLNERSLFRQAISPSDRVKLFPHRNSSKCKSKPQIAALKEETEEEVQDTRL
In short: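 Read-out: chemiluminescent HRP activity of ECL4-HRP-tagged ΔF508-CFTR at the cell surface, 15 min substrate in dark. Normalized as 100×(sample−DMSO)/(positive control−DMSO).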

ΔF508-CFTR [2] = biological target: T1, ΔF508-CFTR; assay: CFTR cell surface levels using HRP-tagged ΔF508-CFTR expressing CFBE cells, in the presence of a co-corrector; assay type: cell-based; settings: HRP-tagged ΔF508-CFTR CFBE cells, in the presence of 3 μM co-corrector; for EC50: read-out: EC50
In short: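 Chemiluminescent read-out of surface HRP (15 min, dark) after PBS washes. Activity is normalized as 100×(sample−DMSO)/(3 μM co-corrector alone−DMSO).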

| SMILES | % Activation (ΔF508-CFTR [1]) | EC50 (ΔF508-CFTR [1]) | % Activation (ΔF508-CFTR [2]) | EC50 (ΔF508-CFTR [2]) |
| --- | --- | --- | --- | --- |
| COC1CCN(c2cc(C(=O)NS(=O)(=O)C3CCS(=O)(=O)C3)nc3c2c(C2CCC2)nn3-c2ccccc2)CC1 (stereo not drawn) [Compound 143, 3-cyclobutyl-N-(1,1-dioxo-1λ^6-thiolane-3-sulfonyl)-4-(4-methoxypiperidin-1-yl)-1-phenyl-1H-pyrazolo[3,4-b]pyridine-6-carboxamide] | 107.15% | 1110 nM | 217.8% | 834 nM |
| CC(C)c1nn(C2CCCOC2)c2nc(C(=O)NS(C)(=O)=O)cc(-c3ccc(N4CCC(C#N)CC4)nc3)c12 (stereo not drawn) [Compound 145, 4-[6-(4-cyanopiperidin-1-yl)pyridin-3-yl]-N-(methanesulfonyl)-1-(oxan-3-yl)-3-(propan-2-yl)-1H-pyrazolo[3,4-b]pyridine-6-carboxamide] | 112.03% | 1040 nM | 271.43% | 636 nM |
| COC1CCN(c2cc(C(=O)NS(=O)(=O)CCC(F)(F)F)nc3c2c(C2CCC2)nn3-c2ccccc2)CC1 [Compound 147, 3-cyclobutyl-4-(4-methoxypiperidin-1-yl)-1-phenyl-N-(3,3,3-trifluoropropane-1-sulfonyl)-1H-pyrazolo[3,4-b]pyridine-6-carboxamide] | 176.47% | 359 nM | 363.93% | 99.9 nM |
| Cc1cccc(-n2nc(C(C)C)c3c(N4CCC5(C4)CC5(F)F)cc(C(=O)NS(C)(=O)=O)nc32)c1 (stereo not drawn) [Compound 149, 4-(1,1-difluoro-5-azaspiro[2.4]heptan-5-yl)-N-(methanesulfonyl)-1-(3-methylphenyl)-3-(propan-2-yl)-1H-pyrazolo[3,4-b]pyridine-6-carboxamide] | 122.3% | 386 nM | 299.95% | 259 nM |
| CC(C)OC1CCN(c2cc(C(=O)NS(C)(=O)=O)nc3c2c(C2CCC2)nn3-c2ccccc2)CC1 [Compound 151, 3-cyclobutyl-N-(methanesulfonyl)-1-phenyl-4-{4-[(propan-2-yl)oxy]piperidin-1-yl}-1H-pyrazolo[3,4-b]pyridine-6-carboxamide] | 228.95% | 347 nM | 387.15% | 109 nM |
| COCC1CCCN(c2cc(C(=O)NS(C)(=O)=O)nc3c2c(C2CCC2)nn3-c2ccccc2)C1 (stereo not drawn) [Compound 153, 3-cyclobutyl-N-(methanesulfonyl)-4-[3-(methoxymethyl)piperidin-1-yl]-1-phenyl-1H-pyrazolo[3,4-b]pyridine-6-carboxamide] | 146.7% | 355 nM | 290.05% | 130 nM |
| CS(=O)(=O)NC(=O)c1cc(N2CCC(OCC(=O)N3CCCC3)CC2)c2c(C3CCC3)nn(-c3ccccc3)c2n1 [Compound 154, 3-cyclobutyl-N-(methanesulfonyl)-4-{4-[2-oxo-2-(pyrrolidin-1-yl)ethoxy]piperidin-1-yl}-1-phenyl-1H-pyrazolo[3,4-b]pyridine-6-carboxamide] | 275.65% | 533 nM | 447.85% | 203 nM |
| COCC1CCN(c2cc(C(=O)NS(C)(=O)=O)nc3c2c(C(C)C)nn3-c2cccc(C)c2)CC1 [Compound 156, N-(methanesulfonyl)-4-[4-(methoxymethyl)piperidin-1-yl]-1-(3-methylphenyl)-3-(propan-2-yl)-1H-pyrazolo[3,4-b]pyridine-6-carboxamide] | 411% | 439 nM | 636.47% | 360 nM |
| CC(C)c1nn(-c2cccc(N(C)C)c2)c2nc(C(=O)NS(C)(=O)=O)cc(N3CCCCC3)c12 [Compound 157, 1-[3-(dimethylamino)phenyl]-N-(methanesulfonyl)-4-(piperidin-1-yl)-3-(propan-2-yl)-1H-pyrazolo[3,4-b]pyridine-6-carboxamide] | 327.8% | 460 nM | 542.17% | 359 nM |
| CS(=O)(=O)NC(=O)c1cc(N2CCC3(CCO3)CC2)c2c(C3CCC3)nn(-c3ccccc3)c2n1 [Compound 159, 3-cyclobutyl-N-(methanesulfonyl)-4-(1-oxa-7-azaspiro[3.5]nonan-7-yl)-1-phenyl-1H-pyrazolo[3,4-b]pyridine-6-carboxamide] | 103.02% | 661 nM | 270.3% | 483 nM |
| COCCC1CCN(c2cc(C(=O)NS(C)(=O)=O)nc3c2c(C(C)C)nn3-c2cccc(C)c2)CC1 [Compound 161, N-(methanesulfonyl)-4-[4-(2-methoxyethyl)piperidin-1-yl]-1-(3-methylphenyl)-3-(propan-2-yl)-1H-pyrazolo[3,4-b]pyridine-6-carboxamide] | 406.4% | 730 nM | 574.1% | 355 nM |
| COC1CCCN(c2cc(C(=O)NS(C)(=O)=O)nc3c2c(C(C)C)nn3-c2cccc(C)c2)C1 (stereo not drawn) [Compound 162, N-(methanesulfonyl)-4-(3-methoxypiperidin-1-yl)-1-(3-methylphenyl)-3-(propan-2-yl)-1H-pyrazolo[3,4-b]pyridine-6-carboxamide] | 169% | 445 nM | 331.53% | 304 nM |
| CCS(=O)(=O)NC(=O)c1cc(N2CCCC(OC)C2)c2c(C(C)C)nn(-c3cccc(C)c3)c2n1 (stereo not drawn) [Compound 163, N-(ethanesulfonyl)-4-(3-methoxypiperidin-1-yl)-1-(3-methylphenyl)-3-(propan-2-yl)-1H-pyrazolo[3,4-b]pyridine-6-carboxamide] | 175.4% | 442 nM | 342.3% | 112 nM |
| Cc1cccc(-n2nc(C(C)C)c3c(N4CCC(CF)CC4)cc(C(=O)NS(C)(=O)=O)nc32)c1 [Compound 164, 4-[4-(fluoromethyl)piperidin-1-yl]-N-(methanesulfonyl)-1-(3-methylphenyl)-3-(propan-2-yl)-1H-pyrazolo[3,4-b]pyridine-6-carboxamide] | 295.25% | 594 nM | 492.45% | 388 nM |
| Cc1cccc(-n2nc(C(C)C)c3c(N4CCC(S(C)(=O)=O)CC4)cc(C(=O)NS(C)(=O)=O)nc32)c1 [Compound 165, N-(methanesulfonyl)-4-[4-(methanesulfonyl)piperidin-1-yl]-1-(3-methylphenyl)-3-(propan-2-yl)-1H-pyrazolo[3,4-b]pyridine-6-carboxamide] | 373.95% | 1780 nM | 534.2% | 885 nM |
| CC(C)Oc1nn(-c2ccccc2)c2nc(C(=O)NS(C)(=O)=O)cc(-c3ccc(N4CCOCC4)cc3)c12 [Compound 166, N-(methanesulfonyl)-4-[4-(morpholin-4-yl)phenyl]-1-phenyl-3-[(propan-2-yl)oxy]-1H-pyrazolo[3,4-b]pyridine-6-carboxamide] | 235.2% | 439 nM | 408.53% | 310 nM |
| COCCN(C)c1cc(C(=O)NS(C)(=O)=O)nc2c1c(C(C)C)nn2-c1cccc(C)c1 [Compound 170, N-(methanesulfonyl)-4-[(2-methoxyethyl)(methyl)amino]-1-(3-methylphenyl)-3-(propan-2-yl)-1H-pyrazolo[3,4-b]pyridine-6-carboxamide] | 213.5% | 975 nM | 425.6% | 722 nM |
| Cc1cccc(-n2nc(C(C)C)c3c(N4CCC5(CCOCC5)C4)cc(C(=O)NS(C)(=O)=O)nc32)c1 [Compound 171, N-(methanesulfonyl)-1-(3-methylphenyl)-4-(8-oxa-2-azaspiro[4.5]decan-2-yl)-3-(propan-2-yl)-1H-pyrazolo[3,4-b]pyridine-6-carboxamide] | 143.4% | 787 nM | 289.23% | 312 nM |
| CCCCOC1CCN(c2cc(C(=O)NS(C)(=O)=O)nc3c2c(C(C)C)nn3-c2ccc(F)cc2)CC1 [Compound 172, 4-(4-butoxypiperidin-1-yl)-1-(4-fluorophenyl)-N-(methanesulfonyl)-3-(propan-2-yl)-1H-pyrazolo[3,4-b]pyridine-6-carboxamide] | 280.03% | 330 nM | 462.4% | 207 nM |
| COC1(C)CCN(c2cc(C(=O)NS(C)(=O)=O)nc3c2c(C(C)C)nn3-c2ccc(F)cc2)CC1 [Compound 173, 1-(4-fluorophenyl)-N-(methanesulfonyl)-4-(4-methoxy-4-methylpiperidin-1-yl)-3-(propan-2-yl)-1H-pyrazolo[3,4-b]pyridine-6-carboxamide] | 51.395% | 412 nM | 183.2% | 433 nM |
| COC1CCN(c2cc(C(=O)NS(=O)(=O)CCNC(=O)c3ccccc3C(=O)O)nc3c2c(C2CCC2)nn3-c2ccccc2)CC1 [Compound 174, 2-[(2-{[3-cyclobutyl-4-(4-methoxypiperidin-1-yl)-1-phenyl-1H-pyrazolo[3,4-b]pyridine-6-carbonyl]sulfamoyl}ethyl)carbamoyl]benzoic acid] | 347.9% | 754 nM | 545% | 468 nM |
